Test results from ChEMBL document CHEMBL2413029, “Rapid modifications of N-substitution in iminosugars: development of new β-glucocerebrosidase inhibitors and pharmacological chaperones for Gaucher disease” (Bioorg Med Chem, 2013).
Numbering of substitutions follows the chain as printed. Each block holds one molecule with its values, some of them ahead of it. Calls of active or inactive are those of the source. No cut-off for these calls is given here.

What was measured:
[1] = target: Lysosomal alpha-glucosidase (Homo sapiens) (UniProt P10253); test: Induction of alpha-glucosidase in human GM00372 cells using 4-methylumbelliferyl alpha-D-glucoside as substrate at <6.25 uM after 4 days by fluorescence spectrophotometry relative to untreated control; assay type: cell-based
[2] = target: Lysosomal alpha-glucosidase (Homo sapiens) (UniProt P10253); test: Induction of alpha-glucosidase in human GM00372 cells using 4-methylumbelliferyl alpha-D-glucoside as substrate at 1.5 uM after 4 days by fluorescence spectrophotometry relative to untreated control; assay type: cell-based
[3] = tested on: T1, Lysosomal acid glucosylceramidase (Homo sapiens), P04062 [N409S]; test: Induction of beta-glucocerebrosidase N370S mutant in human GM00372 cells using 4-methylumbelliferyl-beta-D-glucopyranoside as substrate at 12.5 uM by fluorescence spectrophotometry relative to untreated control; assay type: cell-based
T1 sequence (whole entry): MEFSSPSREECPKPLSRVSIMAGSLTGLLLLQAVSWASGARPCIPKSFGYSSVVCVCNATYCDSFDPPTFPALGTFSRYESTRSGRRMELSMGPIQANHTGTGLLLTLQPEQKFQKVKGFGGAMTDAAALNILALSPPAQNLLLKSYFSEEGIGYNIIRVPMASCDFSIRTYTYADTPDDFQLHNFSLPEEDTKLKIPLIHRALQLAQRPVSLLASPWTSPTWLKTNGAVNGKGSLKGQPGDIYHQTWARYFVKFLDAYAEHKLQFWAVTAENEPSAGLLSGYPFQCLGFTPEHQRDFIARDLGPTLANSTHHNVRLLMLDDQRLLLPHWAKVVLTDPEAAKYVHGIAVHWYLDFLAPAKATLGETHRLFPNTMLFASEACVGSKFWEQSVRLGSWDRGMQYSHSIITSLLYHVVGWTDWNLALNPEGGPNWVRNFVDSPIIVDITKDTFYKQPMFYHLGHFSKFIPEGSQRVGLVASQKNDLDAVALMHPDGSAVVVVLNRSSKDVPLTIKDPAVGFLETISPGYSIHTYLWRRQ

[4] = target: T2, Lysosomal acid glucosylceramidase (Homo sapiens, UniProt P04062); test: Competitive inhibition of human beta-glucocerebrosidase by Lineweaver-Burk double reciprocal plot method
T2 sequence (P04062 whole entry): T1 sequence (whole entry) with S409N

[5] = target: T3, Lysosomal acid glucosylceramidase (Homo sapiens) (UniProt P04062); test: Inhibition of human beta-glucocerebrosidase at 20 uM by fluorescence spectrophotometry
T3 sequence (whole entry): T1 sequence (whole entry) with S409N

[6] = tested on: T1, Lysosomal acid glucosylceramidase (Homo sapiens), P04062 [N409S]; test: Induction of beta-glucocerebrosidase N370S mutant in human GM00372 cells using 4-methylumbelliferyl-beta-D-glucopyranoside as substrate at 25 uM by fluorescence spectrophotometry relative to untreated control; assay type: cell-based
[7] = target: T2, Lysosomal acid glucosylceramidase; test: Non-competitive inhibition of human beta-glucocerebrosidase by Lineweaver-Burk double reciprocal plot method
[8] = tested on: T1, Lysosomal acid glucosylceramidase (Homo sapiens), P04062 [N409S]; test: Induction of beta-glucocerebrosidase N370S mutant trafficking from endoplasmic reticulum to lysosome in human GM00372 cells at 5 uM by immunocytochemistry; assay type: cell-based
[9] = target: Lysosomal alpha-glucosidase (Homo sapiens) (UniProt P10253); test: Induction of alpha-glucosidase in human GM00372 cells using 4-methylumbelliferyl alpha-D-glucoside as substrate at 20 to 100 uM after 4 days by fluorescence spectrophotometry relative to untreated control; assay type: cell-based
[10] = tested on: T1, Lysosomal acid glucosylceramidase (Homo sapiens), P04062 [N409S]; test: Induction of beta-glucocerebrosidase N370S mutant in human GM00372 cells using 4-methylumbelliferyl-beta-D-glucopyranoside as substrate at 1.5 uM by fluorescence spectrophotometry relative to untreated control; assay type: cell-based
[11] = tested on: T1, Lysosomal acid glucosylceramidase (Homo sapiens), P04062 [N409S]; test: Induction of beta-glucocerebrosidase N370S mutant in human GM00372 cells using 4-methylumbelliferyl-beta-D-glucopyranoside as substrate at 3.1 uM by fluorescence spectrophotometry relative to untreated control; assay type: cell-based
[12] = tested on: T1, Lysosomal acid glucosylceramidase (Homo sapiens), P04062 [N409S]; test: Induction of beta-glucocerebrosidase N370S mutant in human GM00372 cells using 4-methylumbelliferyl-beta-D-glucopyranoside as substrate at 6.2 uM by fluorescence spectrophotometry relative to untreated control; assay type: cell-based
[13] = tested on: T1, Lysosomal acid glucosylceramidase (Homo sapiens), P04062 [N409S]; test: Induction of beta-glucocerebrosidase N370S mutant in human GM00372 cells using 4-methylumbelliferyl-beta-D-glucopyranoside as substrate at 50 uM by fluorescence spectrophotometry relative to untreated control; assay type: cell-based
[14] = tested on: T1, Lysosomal acid glucosylceramidase (Homo sapiens), P04062 [N409S]; test: Induction of beta-glucocerebrosidase N370S mutant in human GM00372 cells using 4-methylumbelliferyl-beta-D-glucopyranoside as substrate at 625 nM by fluorescence spectrophotometry relative to untreated control; assay type: cell-based
[15] = target: Lysosomal alpha-glucosidase (Homo sapiens) (UniProt P10253); test: Induction of alpha-glucosidase in human GM00372 cells using 4-methylumbelliferyl alpha-D-glucoside as substrate at 6.2 uM after 4 days by fluorescence spectrophotometry relative to untreated control; assay type: cell-based
[16] = target: Lysosomal alpha-glucosidase (Homo sapiens) (UniProt P10253); test: Induction of alpha-glucosidase in human GM00372 cells using 4-methylumbelliferyl alpha-D-glucoside as substrate at 25 uM after 4 days by fluorescence spectrophotometry relative to untreated control; assay type: cell-based

Compound: O=C(CC(c1ccccc1)(c1ccccc1)c1ccccc1)NCCCCN1[C@H](CO)[C@@H](O)[C@H](O)[C@H]1CO
Activity [8]: Active
Activity [9]: < 10%
fold change (FC) [10]: 2.2
Ki [4]: 4100 nM

Compound: CC[C@@H]1[C@@H](O)[C@H](O)[C@@H](CO)N1CCCCNC(=O)CC1c2ccccc2-c2ccccc21
fold change (FC) [3]: 1.6

Compound: CC[C@@H]1[C@@H](O)[C@H](O)[C@@H](CO)N1CCCCNC(=O)CC(c1ccccc1)(c1ccccc1)c1ccccc1
fold change (FC) [11]: 1.4

Compound: O=C(CC1c2ccccc2-c2ccccc21)NCCCCN1[C@H](CO)[C@@H](O)[C@H](O)[C@H]1CO
Activity [9]: < 10%
fold change (FC) [12]: 1.7

Compound: O=C(CC1c2ccccc2-c2ccccc21)NCCCCN1C[C@@H](O)[C@H](O)[C@H]1CO
Activity [9]: < 10%
fold change (FC) [13]: 1.8

Compound: O=C(Cc1cc(C(F)(F)F)cc(C(F)(F)F)c1)NCCCCN1C[C@H](O)[C@@H](O)[C@H](O)[C@H]1CO
Activity [1]: 60%
fold change (FC) [2]: 0.4
fold change (FC) [3]: 1.75
Ki [4]: 71 nM
inhibition [5]: Active

Compound: O=C(CC(c1ccccc1)(c1ccccc1)c1ccccc1)NCCCCN1C[C@H](O)[C@@H](O)[C@H](O)[C@H]1CO
Activity [1]: 60%
fold change (FC) [2]: 0.4
fold change (FC) [14]: 1.8
Ki [4]: 400 nM
inhibition [5]: Active

Compound: CCCCCCCCCN1C[C@H](O)[C@@H](O)[C@H](O)[C@H]1CO
Activity [1]: 60%
fold change (FC) [15]: 0.4

Compound: O=C(CC(c1ccccc1)(c1ccccc1)c1ccccc1)NCCCCN1C[C@@H](O)[C@H](O)[C@H]1CO
fold change (FC) [16]: 1.2
fold change (FC) [12]: 2.5

Results, then the molecule that gave them:

Activity [1]: 60%
fold change (FC) [2]: 0.3
fold change (FC) [3]: 1.9
Ki [4]: 400 nM
inhibition [5]: Active
Compound: O=C(CC1c2ccccc2-c2ccccc21)NCCCCN1C[C@H](O)[C@@H](O)[C@H](O)[C@H]1CO

fold change (FC) [6]: 1.5
Ki [7]: 1100 nM
inhibition [5]: Active
Compound: COc1ccc2c(c1)C(CC(=O)NCCCCN1C[C@H](O)[C@@H](O)[C@H](O)[C@H]1CO)CC2 (some centres not stated)

Ki [4]: 3200 nM
inhibition [5]: Active
Compound: O=C(COc1ccc(Cl)c(Cl)c1)NCCCCN1C[C@H](O)[C@@H](O)[C@H](O)[C@H]1CO

inhibition [5]: < 60%
Compound: O=C(NCCCCN1C[C@H](O)[C@@H](O)[C@H](O)[C@H]1CO)C1CCC1

Ki [4]: 1000 nM
inhibition [5]: Active
Compound: O=C(NCCCCN1C[C@H](O)[C@@H](O)[C@H](O)[C@H]1CO)C1CCc2ccccc2C1 (some centres not stated)

inhibition [5]: < 60%
Compound: O=C(NCCCCN1C[C@H](O)[C@@H](O)[C@H](O)[C@H]1CO)C1CCCC1

inhibition [5]: < 60%
Compound: O=C(NCCCCN1C[C@H](O)[C@@H](O)[C@H](O)[C@H]1CO)C1CC1

inhibition [5]: < 60%
Compound: O=C(CC1CCCCC1)NCCCCN1C[C@H](O)[C@@H](O)[C@H](O)[C@H]1CO

inhibition [5]: < 60%
Compound: O=C(CC1CCCC1)NCCCCN1C[C@H](O)[C@@H](O)[C@H](O)[C@H]1CO

inhibition [5]: < 60%
Compound: O=C(CCC1CCCC1)NCCCCN1C[C@H](O)[C@@H](O)[C@H](O)[C@H]1CO
